Assay results as given in US20240349725A1, “FORMULATION COMPRISING AN ACID FUNCTION ACTIVE INGREDIENT, ESTER FUNCTION ACTIVE INGREDIENT AND SALT AND/OR CHEMICALLY LABILE ACTIVE INGREDIENT, THE USE THEREOF AND METHOD OF PRODUCTION” (Iharabrás S.A. Indústrias Químicas, priority 2021, published 2024).

Assay: In-house compatibility observations of the actives with acids / 2,4-D amine salt solution
Type: physicochemical
Description: Secondary amine salt formulations diethanolamine, diisopropanolamine) of 2,4-D and other herbicides containing a carboxylic acid function (2,4,5-T, ticlopyr, dicamba, picloram, aminopyralid, others) are extremely hydrophilic, being normally conveyed as a concentrated aqueous solution of high pH to avoid crystallization of the salt/free acid. […] As discussed, these active ingredients have physical-chemical features that make it difficult for them to be used together in the same formulation. In addition to this is the easy decomposition through base-catalyzed hydrolysis, of active ingredients containing the ester function, such as lactofen, if they were soluble or emulsified in an alkaline solution, as is the case of the aqueous solution of amine salts of 2,4-D. This effect was observed when lactofen was dissolved in a naphthenic organic solvent and then emulsified in a solution of 2,4-D dimethylamine salt. Shortly afterwards, lactofen had been decomposed even under mild temperature conditions, which made it impossible to provide this mixture under these conditions as a commercial product. It is also mentioned that, although the degradation kinetics may be different, compounds containing an ester group, such as lactofen, can also undergo solvolysis (hydrolysis if the solvent is water) in the presence of acids, which makes it impossible for lactofen to be transported with 2,4-D without neutralization of the latter by an alkaline compound. Bispyribac sodium is also a compound that easily degrades under different conditions. […] Bispyribac sodium is also known to only remain stable at pH levels close to neutral or slightly alkaline (7 to 9) and at temperatures around 25° C. and in the dark, with an acceleration of degradation under conditions other than these. These features of lactofen and bispyribac sodium make it difficult for one to develop formulations with other active ingredients, which may justify the absence of commercial products with these associated active ingredients.

| SMILES | degradation in the presence of acids (even in the absence of water, observed internally) | degradation in the presence of unneutralized 2,4-D (high acidity of 2,4-D) | decomposition when emulsified in a solution of 2,4-D dimethylamine salt (dissolved in naphthenic organic solvent, emulsified in 2,4-D dimethylamine salt solution, mild temperature) |
| --- | --- | --- | --- |
| COc1cc(OC)nc(Oc2cccc(Oc3nc(OC)cc(OC)n3)c2C(=O)O)n1 [Bispyribac sodium, bispyribac sodium] | degrades easily | fully degraded | – |
| CCOC(=O)C(C)OC(=O)c1cc(Oc2ccc(C(F)(F)F)cc2Cl)ccc1[N+](=O)[O-] (stereo not drawn) [Lactofen, lactofen] | – | – | decomposed |
